Laboratory results taken from patent US20190185865A1, “USE OF PROKARYOTIC TRANSCRIPTIONAL ACTIVATORS AS METABOLITE BIOSENSORS IN EUKARYOTIC CELLS” (Danmarks Tekniske Universitet, priority 2016, published 2019).

Molecular target: T1, BenM (Acinetobacter baylyi, UniProt O68014)
T1 construct: expressed in transfected cells; host or cells: Saccharomyces cerevisiae CEN.PK113-5A, chromosomal integration; promoters TDH3p, TEF1p, RNR2p or REV1p
Assay: CCM-induced GFP expression in yeast strains combining BenM expression cassettes and CYC1p reporter promoter variants (flow cytometry)
Format: cell-based, Saccharomyces cerevisiae
Conditions: for FC (+/−CCM): 1.4 mM CCM
From the text: Strains, chemicals and media. Saccharomyces cerevisiae CEN.PK102-5B (MATa ura3-52 his3Δ1 leu2-3/112 MAL2-8^c SUC2), CEN.PK113-5A (MATa, trp1 his3Δ1 leu2-3/112 MAL2-8^c SUC2) and CEN.PK113-7D (wild type, MATa MAL2-8^c SUC2) strains were obtained from Peter Kotter (Johann Wolfgang Goethe-University Frankfurt, Germany). In principal any other yeast strains may be used, such as one obtained from public repository EuroScarf. EasyClone plasmids used in this work are described in Jensen, N. B. et al. EasyClone: method for iterative chromosomal integration of multiple genes in Saccharomyces cerevisiae. FEMS Yeast Res. 14, 238-48 (2014). Escherichia coli strain DH5a was used as a host for cloning and plasmid propagation. The chemicals and Pfu TURBO DNA polymerase were commercially obtained (Sigma-Aldrich and Agilent Technologies Inc., respectively). All acids used were >97% in purity. S. cerevisiae cells were grown at 30° C. in synthetic complete medium as well as drop-out media and agar plates were prepared using pre-mixed drop-out powders (Sigma-Aldrich). Mineral medium was freshly prepared as described previously. For all media containing diacids, 1.4 mM of the individual diacids were dissolved in mineral medium and pH adjusted to 4.5 before sterile filtration. For CCM several dilutions were made to examine the performance of the CCM biosensor. For naringenin, mineral medium was supplemented with 0, 0.05, 0.10 or 0.20 mM naringenin, dissolved in ethanol, the final ethanol concentration for each medium was 2% (v/v), and the final pH of the medium was adjusted to 6.0. E. coli cells were grown at 37° C. in Luria-Bertani (LB) medium supplemented with 100 μg/mL ampicillin.
Events were analyzed using FlowJo software (TreeStar Inc.).

T1 sequence (O68014 whole entry): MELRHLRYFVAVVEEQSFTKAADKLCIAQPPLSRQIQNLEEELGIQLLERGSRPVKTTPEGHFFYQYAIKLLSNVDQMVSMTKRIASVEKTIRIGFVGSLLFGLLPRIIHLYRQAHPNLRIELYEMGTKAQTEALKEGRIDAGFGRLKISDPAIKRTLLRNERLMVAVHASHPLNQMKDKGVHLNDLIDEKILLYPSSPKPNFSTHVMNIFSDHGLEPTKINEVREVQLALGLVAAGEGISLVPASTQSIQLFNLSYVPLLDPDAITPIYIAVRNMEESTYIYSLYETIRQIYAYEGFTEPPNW

SMILES: O=C(O)/C=C\C=C/C(=O)O [CCM, cis, cis-muconic acid]
- maximum induction of GFP output (chromosomally integrated BenM, 1.4 mM (200 mg/L) CCM, 24 h): 3.5 fold
- increase in reporter output from all CYC1 promoters that harbored BenO (full-length CYC1p with BenO (T1, T2, T1/T2), BenM from TEF1p, 200 mg/L CCM, pH 4.5, 24 h): 1.3-2.2 fold
- highest dynamic range (CCM-inducibility) (minimal promoters 249 bp_CYC1p_BenO_T1 and 209 bp_CYC1p_BenO_T1): 3.2-4.7 fold
- change in reporter output from native CYC1p (native CYC1p, 200 mg/L CCM, pH 4.5, 24 h): no change
- Mean fluorescense intensities of GFP (24 h), CCM (1.4 mM) (strain MeLS0020, TEF1p-BenM + 491bp_CYC1p_BenO_T2:GFP): 813
- FC (+/−CCM) (strain MeLS0020, TEF1p-BenM + 491bp_CYC1p_BenO_T2:GFP, 24 h): 2.224
- Mean fluorescense intensities of GFP (24 h), CCM (1.4 mM) (strain MeLS0021, TEF1p-BenM + 491bp_CYC1p_BenO_T1/T2:GFP): 2967
- FC (+/−CCM) (strain MeLS0021, TEF1p-BenM + 491bp_CYC1p_BenO_T1/T2:GFP, 24 h): 2.184
- Mean fluorescense intensities of GFP (24 h), CCM (1.4 mM) (strain MeLS0025, TEF1p-BenM + 209bp_CYC1p_BenO_T1:GFP): 4139
- FC (+/−CCM) (strain MeLS0025, TEF1p-BenM + 209bp_CYC1p_BenO_T1:GFP, 24 h): 3.494
- Mean fluorescense intensities of GFP (24 h), CCM (1.4 mM) (strain MeLS0026, TEF1p-BenM + 209bp_CYC1p_BenO_T2:GFP): 406
- FC (+/−CCM) (strain MeLS0026, TEF1p-BenM + 209bp_CYC1p_BenO_T2:GFP, 24 h): 1.068
- Mean fluorescense intensities of GFP (24 h), CCM (1.4 mM) (strain MeLS0027, TEF1p-BenM + 209bp_CYC1p_BenO_T1/T2:GFP): 1879
- FC (+/−CCM) (strain MeLS0027, TEF1p-BenM + 209bp_CYC1p_BenO_T1/T2:GFP, 24 h): 3.394
- Mean fluorescense intensities of GFP (24 h), CCM (1.4 mM) (strain MeLS0044, REV1p-BenM + 491bp_CYC1p_BenO_T2:GFP): 667
- FC (+/−CCM) (strain MeLS0044, REV1p-BenM + 491bp_CYC1p_BenO_T2:GFP, 24 h): 1.524
- Mean fluorescense intensities of GFP (24 h), CCM (1.4 mM) (strain MeLS0045, REV1p-BenM + 491bp_CYC1p_BenO_T1/T2:GFP): 1698
- FC (+/−CCM) (strain MeLS0045, REV1p-BenM + 491bp_CYC1p_BenO_T1/T2:GFP, 24 h): 1.418
- CCM-inducibility (strain MeLS0049, 209 bp_CYC1p_BenO_T1, BenM from REV1p): 3.8 fold
- Mean fluorescense intensities of GFP (24 h), CCM (1.4 mM) (strain MeLS0049, REV1p-BenM + 209bp_CYC1p_BenO_T1:GFP): 880
- FC (+/−CCM) (strain MeLS0049, REV1p-BenM + 209bp_CYC1p_BenO_T1:GFP, 24 h): 3.81
- Mean fluorescense intensities of GFP (24 h), CCM (1.4 mM) (strain MeLS0050, REV1p-BenM + 209bp_CYC1p_BenO_T2:GFP): 182
- FC (+/−CCM) (strain MeLS0050, REV1p-BenM + 209bp_CYC1p_BenO_T2:GFP, 24 h): 1.166
- Mean fluorescense intensities of GFP (24 h), CCM (1.4 mM) (strain MeLS0051, REV1p-BenM + 209bp_CYC1p_BenO_T1/T2:GFP): 307
- FC (+/−CCM) (strain MeLS0051, REV1p-BenM + 209bp_CYC1p_BenO_T1/T2:GFP, 24 h): 1.569
- Mean fluorescense intensities of GFP (24 h), CCM (1.4 mM) (strain MeLS0070, RNR2p-BenM + 209bp_CYC1p_BenO_T1/T2:GFP): 356
- FC (+/−CCM) (strain MeLS0070, RNR2p-BenM + 209bp_CYC1p_BenO_T1/T2:GFP, 24 h): 1.775
- Mean fluorescense intensities of GFP (24 h), CCM (1.4 mM) (strain MeLS0079, TEF1p-BenM): 185
- FC (+/−CCM) (strain MeLS0079, TEF1p-BenM, 24 h): 1.071
- Mean fluorescense intensities of GFP (24 h), CCM (1.4 mM) (strain MeLS0081, REV1p-BenM): 175
- FC (+/−CCM) (strain MeLS0081, REV1p-BenM, 24 h): 1.105
- Mean fluorescense intensities of GFP (24 h), CCM (1.4 mM) (strain MeLS0139, REV1p-BenM + 491bp_CYC1p:GFP): 2231
- FC (+/−CCM) (strain MeLS0139, REV1p-BenM + 491bp_CYC1p:GFP, 24 h): 0.9828
- Mean fluorescense intensities of GFP (24 h), CCM (1.4 mM) (strain MeLS0140, REV1p-BenM + 272bp_CYC1p:GFP): 183
- FC (+/−CCM) (strain MeLS0140, REV1p-BenM + 272bp_CYC1p:GFP, 24 h): 1.105
- Mean fluorescense intensities of GFP (24 h), CCM (1.4 mM) (strain MeLS0141, REV1p-BenM + 249bp_CYC1p:GFP): 176
- FC (+/−CCM) (strain MeLS0141, REV1p-BenM + 249bp_CYC1p:GFP, 24 h): 1.056
- Mean fluorescense intensities of GFP (24 h), CCM (1.4 mM) (strain MeLS0142, REV1p-BenM + 209bp_CYC1p:GFP): 174
- FC (+/−CCM) (strain MeLS0142, REV1p-BenM + 209bp_CYC1p:GFP, 24 h): 1.09
- Mean fluorescense intensities of GFP (24 h), CCM (1.4 mM) (strain MeLS0143, REV1p-BenM + 491bp_CYC1p_BenO_T1:GFP): 5789
- FC (+/−CCM) (strain MeLS0143, REV1p-BenM + 491bp_CYC1p_BenO_T1:GFP, 24 h): 1.088
- Mean fluorescense intensities of GFP (24 h), CCM (1.4 mM) (strain MeLS0144, REV1p-BenM + 272bp_CYC1p_BenO_T1:GFP): 804
- FC (+/−CCM) (strain MeLS0144, REV1p-BenM + 272bp_CYC1p_BenO_T1:GFP, 24 h): 2.381
- Mean fluorescense intensities of GFP (24 h), CCM (1.4 mM) (strain MeLS0145, REV1p-BenM + 249bp_CYC1p_BenO_T1:GFP): 405
- FC (+/−CCM) (strain MeLS0145, REV1p-BenM + 249bp_CYC1p_BenO_T1:GFP, 24 h): 1.953
- Mean fluorescense intensities of GFP (24 h), CCM (1.4 mM) (strain MeLS0147, TDH3p-BenM + 272bp_CYC1p_BenO_T1:GFP): 4984
- FC (+/−CCM) (strain MeLS0147, TDH3p-BenM + 272bp_CYC1p_BenO_T1:GFP, 24 h): 3.738
- Mean fluorescense intensities of GFP (24 h), CCM (1.4 mM) (strain MeLS0148, TEF1p-BenM + 272bp_CYC1p_BenO_T1:GFP): 4032
- FC (+/−CCM) (strain MeLS0148, TEF1p-BenM + 272bp_CYC1p_BenO_T1:GFP, 24 h): 3.463
- Mean fluorescense intensities of GFP (24 h), CCM (1.4 mM) (strain MeLS0149, RNR2p-BenM + 272bp_CYC1p_BenO_T1:GFP): 854
- FC (+/−CCM) (strain MeLS0149, RNR2p-BenM + 272bp_CYC1p_BenO_T1:GFP, 24 h): 2.313
- Mean fluorescense intensities of GFP (24 h), CCM (1.4 mM) (strain MeLS0150, TDH3p-BenM + 209bp_CYC1p_BenO_T1:GFP): 4868
- FC (+/−CCM) (strain MeLS0150, TDH3p-BenM + 209bp_CYC1p_BenO_T1:GFP, 24 h): 4.082
- Mean fluorescense intensities of GFP (24 h), CCM (1.4 mM) (strain MeLS0151, RNR2p-BenM + 209bp_CYC1p_BenO_T1:GFP): 859
- FC (+/−CCM) (strain MeLS0151, RNR2p-BenM + 209bp_CYC1p_BenO_T1:GFP, 24 h): 3.735
- Mean fluorescense intensities of GFP (24 h), CCM (1.4 mM) (strain MeLS0152, TDH3p-BenM): 184
- FC (+/−CCM) (strain MeLS0152, TDH3p-BenM, 24 h): 1.08
- Mean fluorescense intensities of GFP (24 h), CCM (1.4 mM) (strain MeLS0153, RNR2p-BenM): 174
- FC (+/−CCM) (strain MeLS0153, RNR2p-BenM, 24 h): 1.13
- Mean fluorescense intensities of GFP (24 h), CCM (1.4 mM) (strain MeLS0156, TEF1p-BenM + 491bp_CYC1p:GFP): 3016
- FC (+/−CCM) (strain MeLS0156, TEF1p-BenM + 491bp_CYC1p:GFP, 24 h): 0.9902
- Mean fluorescense intensities of GFP (24 h), CCM (1.4 mM) (strain MeLS0157, TEF1p-BenM + 272bp_CYC1p:GFP): 198
- FC (+/−CCM) (strain MeLS0157, TEF1p-BenM + 272bp_CYC1p:GFP, 24 h): 1.13
- Mean fluorescense intensities of GFP (24 h), CCM (1.4 mM) (strain MeLS0158, TEF1p-BenM + 249bp_CYC1p:GFP): 175
- FC (+/−CCM) (strain MeLS0158, TEF1p-BenM + 249bp_CYC1p:GFP, 24 h): 1.117
- Mean fluorescense intensities of GFP (24 h), CCM (1.4 mM) (strain MeLS0159, TEF1p-BenM + 209bp_CYC1p:GFP): 177
- FC (+/−CCM) (strain MeLS0159, TEF1p-BenM + 209bp_CYC1p:GFP, 24 h): 1.132
- Mean fluorescense intensities of GFP (24 h), CCM (1.4 mM) (strain MeLS0160, RNR2p-BenM + 491bp_2YC1p:GFP): 2811
- FC (+/−CCM) (strain MeLS0160, RNR2p-BenM + 491bp_2YC1p:GFP, 24 h): 1.071
- Mean fluorescense intensities of GFP (24 h), CCM (1.4 mM) (strain MeLS0161, RNR2p-BenM + 272bp_CYC1p:GFP): 180
- FC (+/−CCM) (strain MeLS0161, RNR2p-BenM + 272bp_CYC1p:GFP, 24 h): 1.049
